Assay results: patent US5604215A, “Steroid sulphatase inhibitors” (Imperial College of Science, Technology and Medicine, priority 1991, dated 1997)
Like-named read-outs stand apart in the source and are kept apart here.

What was measured:
[1] = target: T1, steroid sulphatase (Steryl Sulphatase EC 3.1.6.2) in MCF-7 cells (Homo sapiens, UniProt P08842); test: Inhibition of Steroid Sulphatase Activity in MCF-7 cells (intact MCF-7 human breast cancer cells, [6,7-^3 H]oestrone-3-sulphate substrate); assay type: cell-based; settings: for Steroid Sulphatase Activity in MCF-7 cells in the presence of oestrone-3-sulphonates: 10 μM, mean ± 1 S.D. n = 3, control 80.1 ± 3.3 (E1 -3-MeS: control 46.5 ± 2.3), *p ≤ 0.05 (E1 -3-BuS), **p ≤ 0.01 (EtS, CamS, MeS), E1 -3-MePhS: mean of 2 estimates, control 71.3; for inhibition at 10 µM: MCF7, Table II, inhibition over control incubations, read-out: % reduction over control (% inhibition), oestrone-3-sulphonates
T1 construct: intact MCF-7 human breast cancer cells; endogenous in cells; host or cells: MCF-7 human breast cancer cells
T1 sequence (P08842 22-583): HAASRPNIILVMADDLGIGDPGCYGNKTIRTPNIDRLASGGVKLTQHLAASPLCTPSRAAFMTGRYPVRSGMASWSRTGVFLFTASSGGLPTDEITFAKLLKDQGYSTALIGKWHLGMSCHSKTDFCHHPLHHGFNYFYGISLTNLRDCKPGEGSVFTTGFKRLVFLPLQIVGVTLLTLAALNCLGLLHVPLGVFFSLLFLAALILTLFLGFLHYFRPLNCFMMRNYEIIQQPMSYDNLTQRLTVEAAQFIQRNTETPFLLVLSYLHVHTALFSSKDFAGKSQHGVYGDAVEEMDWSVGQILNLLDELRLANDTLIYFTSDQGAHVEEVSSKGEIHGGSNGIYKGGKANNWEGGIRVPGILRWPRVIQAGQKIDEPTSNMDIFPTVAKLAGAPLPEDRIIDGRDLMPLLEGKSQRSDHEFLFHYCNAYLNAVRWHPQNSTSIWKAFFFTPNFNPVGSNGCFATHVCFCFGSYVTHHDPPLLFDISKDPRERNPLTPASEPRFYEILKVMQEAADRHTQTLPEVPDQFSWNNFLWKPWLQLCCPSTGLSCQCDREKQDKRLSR

[2] = target: T1, steroid sulphatase (Steryl Sulphatase EC 3.1.6.2) in MCF-7 cells; test: as above; assay type: cell-based
Procedure: Steroid sulphatase is defined as: Steryl Sulphatase EC 3.1.6.2.
Steroid sulphatase activity was measured in vitro using intact MCF-7 human breast cancer cells. This hormone dependent cell line is widely used to study the control of human breast cancer cell growth. […] Up to 30 replicate 25 cm^2 tissue culture flasks were seeded with approximately 1×10^5 cells/flask using the above medium. Cells were grown to 80% confluency and medium was changed every third day.
Intact monolayers of MCF-7 cells in triplicate 25 cm^2 tissue culture flasks were washed with Earle's Balanced Salt Solution (EBSS from ICN Flow, High Wycombe, U.K.) and incubated for […] at 37° C. with 5 pmol (7×10^5 dpm) [6,7-^3 H]oestrone-3-sulphate (specific activity 60 Ci/mmol from New England Nuclear, Boston, Mass., U.S.A.) in serum-free MEM (2.5 ml) together with 10 μM of each of four oestrone-3-phosphonates:
After incubation each flask was cooled and the medium (1 ml) was pipetted into separate tubes containing [^14 C]oestrone (7×10^3 dpm) (specific activity […] from Amersham International Radiochemical Centre, Amersham, U.K.). The mixture was shaken thoroughly for 30 seconds with toluene (5 ml). […] A portion (2 ml) of the organic phase was removed, evaporated and the ^3 H and ^14 C content of the residue determined by scintillation spectrometry. The mass of oestrone-3-sulphate hydrolysed was calculated from the ^3 H counts obtained (corrected for the volumes of the medium and organic phase used, and for recovery of [^14 C]oestrone added) and the specific activity of the substrate. […] The number of cell nuclei per flask was determined using a Coulter Counter after treating the cell monolayers with Zaponin.
Results are expressed as the mean ±1 S.D. of the total product (oestrone+oestradiol) formed during the incubation period (20 hours) calculated for 10^6 cells and as a percentage reduction (inhibition) over incubations containing no oestrone-3-phosphonate for values showing statistical significance. […]

[3] = target: T2, steroid sulphatase in placental microsomes (Homo sapiens, UniProt P08842); test: Inhibition of Steroid Sulphatase Activity in Placental Microsomes ([6,7-^3 H]oestrone-3-sulphate substrate); assay type: biochemical; settings: 20 μM oestrone-3-sulphate, 100 μg/ml protein, 20 minutes, 37° C., calculated IC50
T2 construct: Sulphatase-positive human placenta from normal term pregnancies; from tissue; host or cells: human term placenta (Obstetric Ward, St. Mary's Hospital, London), 2000 g supernatant of the homogenate
T2 sequence (P08842 22-583): T1 sequence (P08842 22-583)
Procedure: Sulphatase-positive human placenta from normal term pregnancies (Obstetric Ward, St. Mary's Hospital, London) were thoroughly minced with scissors and washed once with cold phosphate buffer (pH 7.4, 50 mM) then re-suspended in cold phosphate buffer (5 ml/g tissue). Homogenisation was accomplished with an Ultra-Turrax homogeniser, using three 10 second bursts separated by 2 minute cooling periods in ice. Nuclei and cell debris were removed by centrifuging (4° C.) at 2000 g for 30 minutes and portions (2 ml) of the supernatent were stored at -20° C. The protein concentration of the supernatents was determined by the method of Bradford (Anal. Biochem., 72, 248-254 (1976)).
Incubations (1 ml) were carried out using a protein concentration of 100 μg/ml, substrate concentration of 20 μM [6,7-^3 H]oestrone-3-sulphate (specific activity 60 Ci/mmol from New England Nuclear, Boston, Mass., U.S.A.) and an incubation time of 20 minutes at 37° C. The following oestrone-3-phosphonates were added to separate samples at a range of concentrations individually adjusted to span the 50% inhibition level:
After incubation each sample was cooled and the medium (1 ml) was pipetted into separate tubes containing [^14 C]oestrone (7×10^3 dpm) (specific activity […] from Amersham International Radiochemical Centre, Amersham, U.K.). The mixture was shaken thoroughly for 30 seconds with toluene (5 ml). […] A portion (2 ml) of the organic phase was removed, evaporated and the ^3 H and ^14 C content of the residue determined by scintillation spectrometry. The mass of oestrone-3-sulphate hydrolysed was calculated from the ^3 H counts obtained (corrected for the volumes of medium and organic phase used, and for recovery of [^14 C]oestrone added) and the specific activity of substrate.
Results for steroid sulphatase activity are expressed in Table III as calculated IC50 values (i.e. the concentration of oestrone-3-phosphonate which produced 50% inhibition in relation to control). […]

[4] = Table IV, read-out: Steroid Sulphatase Activity in placental microsomes in the presence of oestrone-3-sulphonates (IC50)

| Compound | Steroid Sulphatase Activity in MCF-7 cells in the presence of oestrone-3-sulphonates [1] [fmol/20 hr/10^6 cells] | inhibition at 10 µM [1] [%] | other results |
| --- | --- | --- | --- |
| CCS(=O)(=O)Oc1ccc2c(c1)CC[C@@H]1[C@@H]2CC[C@]2(C)C(=O)CC[C@@H]12 [E1-3-EtS, oestrone-3-ethylsulphonate] | 58.4 ± 1.9 | 27.1 | – |
| C[C@]12CC[C@@H]3c4ccc(OP(=O)(O)c5ccccc5)cc4CC[C@H]3[C@@H]1CCC2=O [E1-3-PhP, oestrone-3-phenylphosphonate] | – | – | % reduction over control (% inhibition), oestrone-3-phosphonates ([2]; 10 μM, Table I, inhibition over incubations containing no oestrone-3-phosphonate): 70.3%; Steroid Sulphatase Activity in MCF-7 cells in the presence of oestrone-3-phosphonates ([2]; 10 μM, mean ± 1 S.D. n = 3, control 46.5 ± 2.3, ***p ≤ 0.001, E1 -3-HP: mean of 2 estimates, control 71.3): 13.8 ± 0.7 fmol/20 hr/10^6 cells |
| C[C@]12CC[C@@H]3c4ccc(O[PH](=O)O)cc4CC[C@H]3[C@@H]1CCC2=O [E1-3-HP, oestrone-3-hydrogen-phosphonate] | – | – | inhibition at 10 µM ([2]; MCF7, Table I, inhibition over incubations containing no oestrone-3-phosphonate, read-out: % reduction over control (% inhibition), oestrone-3-phosphonates): 80.1%; IC50 ([3]; Table III, read-out: Steroid Sulphatase Activity in placental microsomes in the presence of oestrone-3-phosphonates (IC50)): 5000 µM |
| CC1(C)C2CCC1(CS(=O)(=O)Oc1ccc3c(c1)CC[C@@H]1[C@@H]3CC[C@]3(C)C(=O)CC[C@@H]13)C(=O)C2 (stereo partly drawn) [E1-3-CamS, oestrone-3-camphorylsulphonate] | 62.7 ± 1.8 | 21.7 | – |
| Cc1ccc(S(=O)(=O)Oc2ccc3c(c2)CC[C@@H]2[C@@H]3CC[C@]3(C)C(=O)CC[C@@H]23)cc1 [E1-3-MePhS, oestrone-3-p-toluenesulphonate] | – | 90.5 | IC50 [3, 4]: 130 µM |
| C[C@]12CC[C@@H]3c4ccc(OS(C)(=O)=O)cc4CC[C@H]3[C@@H]1CCC2=O [E1-3-MeS, oestrone-3-methylsulphonate] | 21.3 ± 3.5 | 54.2 | IC50 [3, 4]: 205 µM |
| CCCCS(=O)(=O)Oc1ccc2c(c1)CC[C@@H]1[C@@H]2CC[C@]2(C)C(=O)CC[C@@H]12 [E1-3-BuS, oestrone-3-n-butylsulphonate] | 66.8 ± 3.3 | 16.6 | – |
